Experimental data taken from US10800792B2, “Inhibitors of Bruton's tyrosine kinase and method of their use” (JANSSEN PHARMACEUTICA NV, priority 2015, dated 2020).

Target: unphosphorylated-BTK kinase domain (UP-BTK), GST-tagged human BTK (389-659aa) (Homo sapiens (Human), UniProt Q06187)
Experiment: BTK kinase Lanthascreen binding assay
Settings: unphosphorylated-BTK kinase domain, 50 nM Tracer 236, 60 minutes; pIC50 = negative log of the IC50 in molar
Procedure, shortened: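 A fluorescent tracer is bound to unphosphorylated BTK; test compound is added to compete it off; the Lanthascreen signal is read and IC50 is fitted, then reported as its negative log in molar.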

unphosphorylated-BTK kinase domain (UP-BTK), GST-tagged human BTK (389-659aa), sequence (Q06187 389-659): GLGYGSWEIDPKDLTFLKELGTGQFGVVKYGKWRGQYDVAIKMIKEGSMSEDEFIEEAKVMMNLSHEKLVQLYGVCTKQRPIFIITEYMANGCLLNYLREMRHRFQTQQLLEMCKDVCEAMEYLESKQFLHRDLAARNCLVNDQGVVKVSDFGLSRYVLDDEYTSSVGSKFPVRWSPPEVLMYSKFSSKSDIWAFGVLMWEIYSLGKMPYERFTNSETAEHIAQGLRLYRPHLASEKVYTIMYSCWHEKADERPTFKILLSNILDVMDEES

| BTK_I_binding pIC50 | Compound |
| --- | --- |
| 6.2 | O=C(NC1CCCNC1=O)c1sc2nccc3c2c1NC(=O)N3c1ccc(Oc2ccccc2)cc1 (stereo not drawn) [Example 458, 4-Oxo-N-(2-oxopiperidin-3-yl)-5-(4-phenoxyphenyl)-4,5-dihydro-3H-1-thia-3,5,8-triazaacenaphthylene-2-carboxamide] |
| <5 | COc1ccc(N2C(=O)Nc3c(C(=O)N[C@@H]4CCCNC4)sc4nccc2c34)cc1C(F)(F)F [Example 459, (R)-5-(4-Methoxy-3-(trifluoromethyl)phenyl)-4-oxo-N-(piperidin-3-yl)-4,5-dihydro-3H-1-thia-3,5,8-triazaacenaphthylene-2-carboxamide] |
| 5.3 | Cc1ccc(N2C(=O)Nc3c(C(=O)N[C@@H]4CCCNC4)sc4nccc2c34)cc1Cl [Example 460, (R)-5-(3-Chloro-4-methylphenyl)-4-oxo-N-(piperidin-3-yl)-4,5-dihydro-3H-1-thia-3,5,8-triazaacenaphthylene-2-carboxamide] |
| 5.0 | Cc1ccc(N2C(=O)Nc3c(C(=O)N[C@@H]4CCCNC4)sc4nccc2c34)cc1C(F)(F)F [Example 461, (R)-5-(4-Methyl-3-(trifluoromethyl)phenyl)-4-oxo-N-(piperidin-3-yl)-4,5-dihydro-3H-1-thia-3,5,8-triazaacenaphthylene-2-carboxamide] |
| 6.4 | O=C(NCC1CCCO1)c1sc2nccc3c2c1NC(=O)N3c1ccc(Oc2ccccc2)cc1 (stereo not drawn) [Example 462, 4-Oxo-5-(4-phenoxyphenyl)-N-((tetrahydrofuran-2-yl)methyl)-4,5-dihydro-3H-1-thia-3,5,8-triazaacenaphthylene-2-carboxamide] |
| 7.9 | C=CC(=O)N1C[C@H](NC(=O)c2sc3nccc4c3c2NC(=O)N4c2ccc(Oc3ccccc3)cc2)[C@@H](O)C1 [Example 463, N-((3S,4S)-1-Acryloyl-4-hydroxypyrrolidin-3-yl)-4-oxo-5-(4-phenoxyphenyl)-4,5-dihydro-3H-1-thia-3,5,8-triazaacenaphthylene-2-carboxamide] |
| 6.8 | O=C(N[C@H]1CNC[C@@H]1O)c1sc2nccc3c2c1NC(=O)N3c1ccc(Oc2ccccc2)cc1 [Example 464, N-((3S,4S)-4-Hydroxypyrrolidin-3-yl)-4-oxo-5-(4-phenoxyphenyl)-4,5-dihydro-3H-1-thia-3,5,8-triazaacenaphthylene-2-carboxamide] |
| 6.2 | O=C(N[C@@H]1CCCNC1)c1sc2nccc3c2c1NC(=O)N3c1cccc(Cc2ccccc2)c1 [Example 465, (R)-5-(3-Benzylphenyl)-4-oxo-N-(piperidin-3-yl)-4,5-dihydro-3H-1-thia-3,5,8-triazaacenaphthylene-2-carboxamide] |
| 6.7 | O=C(N[C@@H]1CCCNC1)c1sc2nccc3c2c1NC(=O)N3c1cccc(Oc2ccccc2)c1 [Example 466, (R)-4-Oxo-5-(3-phenoxyphenyl)-N-(piperidin-3-yl)-4,5-dihydro-3H-1-thia-3,5,8-triazaacenaphthylene-2-carboxamide] |
| 7.4 | C=CC(=O)N1CC(NC(=O)c2sc3nccc4c3c2NC(=O)N4c2ccc(Oc3ccccc3)cc2C)C1 [Example 496, N-(1-Acryloylazetidin-3-yl)-5-(*S)-(2-methyl-4-phenoxyphenyl)-4-oxo-4,5-dihydro-3H-1-thia-3,5,8-triazaacenaphthylene-2-carboxamide] |
| 7.9 | C=CC(=O)N1CCC[C@@H](NC(=O)c2sc3nccc4c3c2NC(=O)N4c2ncc(Oc3ccccc3)cc2C)C1 [Example 497, (R)—N-(1-Acryloylpiperidin-3-yl)-5-(3-methyl-5-phenoxypyridin-2-yl)-4-oxo-4,5-dihydro-3H-1-thia-3,5,8-triazaacenaphthylene-2-carboxamide] |
| 7.8 | C=CC(=O)N1CCC[C@@H](NC(=O)c2sc3nccc4c3c2NC(=O)N4c2cccc(-c3cccc(F)c3F)c2)C1 [Example 498, (R)—N-(1-Acryloylpiperidin-3-yl)-5-(2′,3′-difluoro-[1,1′-biphenyl]-3-yl)-4-oxo-4,5-dihydro-3H-1-thia-3,5,8-triazaacenaphthylene-2-carboxamide] |
| 8.1 | C=CC(=O)N1CCC[C@@H](NC(=O)c2sc3nccc4c3c2NC(=O)N4c2cccc(-c3cccc(F)c3)c2)C1 [Example 500, (R)—N-(1-Acryloylpiperidin-3-yl)-5-(3′-fluoro-[1,1′-biphenyl]-3-yl)-4-oxo-4,5-dihydro-3H-1-thia-3,5,8-triazaacenaphthylene-2-carboxamide] |
| 8.0 | C=CC(=O)N1CCC[C@@H](NC(=O)c2sc3nccc4c3c2NC(=O)N4c2cccc(-c3ccccc3C)c2)C1 [Example 504, (R)—N-(1-Acryloylpiperidin-3-yl)-5-(2′-methyl-[1,1′-biphenyl]-3-yl)-4-oxo-4,5-dihydro-3H-1-thia-3,5,8-triazaacenaphthylene-2-carboxamide] |
| 7.9 | C=CC(=O)N1CCC[C@@H](NC(=O)c2sc3nccc4c3c2NC(=O)N4c2ccc(Oc3ccccc3)nc2)C1 [Example 506, (R)—N-(1-Acryloylpiperidin-3-yl)-4-oxo-5-(6-phenoxypyridin-3-yl)-4,5-dihydro-3H-1-thia-3,5,8-triazaacenaphthylene-2-carboxamide] |
| 7.8 | C=CC(=O)N1CCC[C@@H](NC(=O)c2sc3nccc4c3c2NC(=O)N4c2cccc(-c3cccc(Cl)c3)c2)C1 [Example 507, (R)—N-(1-Acryloylpiperidin-3-yl)-5-(3′-chloro-[1,1′-biphenyl]-3-yl)-4-oxo-4,5-dihydro-3H-1-thia-3,5,8-triazaacenaphthylene-2-carboxamide] |
| 8.0 | C=CC(=O)N1CCC[C@@H](NC(=O)c2sc3nccc4c3c2NC(=O)N4c2cccc(-c3ccccc3Cl)c2)C1 [Example 510, (R)—N-(1-Acryloylpiperidin-3-yl)-5-(2′-chloro-[1,1′-biphenyl]-3-yl)-4-oxo-4,5-dihydro-3H-1-thia-3,5,8-triazaacenaphthylene-2-carboxamide] |
| 7.8 | C=CC(=O)N1CCC[C@@H](NC(=O)c2sc3nccc4c3c2NC(=O)N4c2ccnc(-c3ccccc3)c2)C1 [Example 512, (R)—N-(1-Acryloylpiperidin-3-yl)-4-oxo-5-(2-phenylpyridin-4-yl)-4,5-dihydro-3H-1-thia-3,5,8-triazaacenaphthylene-2-carboxamide] |
| 8.2 | C=CC(=O)N1CCC[C@@H](NC(=O)c2sc3nccc4c3c2NC(=O)N4c2ccc(Oc3ccccc3)cn2)C1 [Example 513, (R)—N-(1-Acryloylpiperidin-3-yl)-4-oxo-5-(5-phenoxypyridin-2-yl)-4,5-dihydro-3H-1-thia-3,5,8-triazaacenaphthylene-2-carboxamide] |
| 7.7 | C=CC(=O)N1CCC[C@@H](NC(=O)c2sc3nccc4c3c2NC(=O)N4c2cccc(-c3ccc(F)cc3F)c2)C1 [Example 515, (R)—N-(1-Acryloylpiperidin-3-yl)-5-(2′,4′-difluoro-[1,1′-biphenyl]-3-yl)-4-oxo-4,5-dihydro-3H-1-thia-3,5,8-triazaacenaphthylene-2-carboxamide] |
| 7.7 | C=CC(=O)N1CCC[C@@H](NC(=O)c2sc3nccc4c3c2NC(=O)N4c2cccc(Cc3ccccc3)c2)C1 [Example 516, (R)—N-(1-Acryloylpiperidin-3-yl)-5-(3-benzylphenyl)-4-oxo-4,5-dihydro-3H-1-thia-3,5,8-triazaacenaphthylene-2-carboxamide] |
